Data from patent publication US20250164468A1, “Method for Cellular Lifespan Measurement” (AGENCY FOR SCIENCE, TECHNOLOGY AND RESEARCH, priority 2022, published 2025).

Columns and labels:
Assay type in all cases: cell-based, Saccharomyces cerevisiae
[1] = system: prototrophic yeast strain (CEN.PK113-7D); assay: Propidium iodide fluorescence-based chronological lifespan (CLS) method in yeast, incl. high-throughput screening; settings: for Yeast CLS increase / PI intensity: 100 μM tested; for Yeast CLS increase: Yes/No call; for PI intensity: chronological age point day 7 (72 h growth = day 1), lower PI = more survival
Procedure: Chronological lifespan (CLS) experiments were conducted in 96-well plates with 200 μL yeast culture. The prototrophic wild-type yeast strain (CEN.PK113-7D) and snf1Δ deletion strains were grown in the SD medium in 96-well plates at 30° C. Saccharomyces cerevisiae BY4743 strain was grown in the SD medium supplemented with histidine (40 mg/L), leucine (160 mg/L), and uracil (40 mg/L) in 96-well plates at 30° C. For assays testing the effect of rapamycin, cellular inoculum was transferred into 96-well plates containing serially double-diluted concentrations (0 to 10 nM) of rapamycin. […] Likewise, cellular inoculum was transferred into the 96-well plates containing serially double-diluted concentrations (0-8 mM) of D-fructose, D-mannitol, D-maltose, and D-sorbitol. Cells were incubated at 30° C., and the growth was measured at different time points. […] Cell survival was quantified at various age time points by three different approaches: (i) propidium iodide fluorescence-based method, (ii) outgrowth in YPD liquid medium and (iii) spotting assay (FIG. 1).
40 μL yeast cells on different age time points were transferred into a 96-well plate different to the 96-well plate in which the CLS analysis was performed. Cells were washed and incubated in 100 μL 1×PBS with PI (5 μg/mL) for 15 minutes in the dark. Positive and negative sample control were included for quantitative analysis. Positive control (cells boiled at 100° C. for 15 min) was PI-stained and processed in the same 96-well plate. Samples without PI-stained cells served as the negative control. After incubation, cells were washed and resuspended in 100 μL PBS. The fluorescence reading of the samples (excitation at 535 nm, emission at 617 nm) and OD600 nm were measured by a microplate reader (BioTek, Winooski, Vermont, United States). The fluorescence intensity of each sample was normalized with OD600 nm. The normalized fluorescence intensity of each sample was subtracted from the background signal of the unstained negative sample. The obtained fluorescence intensity of the positive control sample (boiled dead cells) was considered 0% cell survival. […] Cell survival of different age time point samples were calculated by normalizing the fluorescence intensity with positive control sample (boiled cells).
The prototrophic yeast strain (CEN.PK113-7D) was grown in the synthetic defined medium with indicated concentrations of rapamycin in 96-well plates at 30° C. A total of 30 samples of individual rapamycin concentration was tested with DMSO control (0 nM rapamycin) for Z-factor analysis. […] The chronological lifespan of the aged cells was determined by the outgrowth method in YPD liquid medium. […] At chronological age point day 4, 3 μL culture were transferred to a second 96-well plate containing 200 μL YPD medium. […] The CLS of different concentrations of rapamycin incubated cells was determined using the propidium iodide fluorescence-based method (FIG. 2C). […] Z-factor of different concentrations of rapamycin was analyzed using the formula Z=1−[3×(standard deviation of control sample+standard deviation of rapamycin sample)/(mean of control sample−mean of rapamycin sample)].
High-throughput screening of various chemicals was tested using the same protocol for the propidium iodide fluorescence-based method as described above. The prototrophic yeast strain (CEN.PK113-7D) was grown in the synthetic defined medium with different chemical reagents with a single testing concentration (Table 1) in addition to eight replicates of DMSO and water controls in 96-well plates at 30° C.

[2] = system: prototrophic yeast strain (CEN.PK113-7D); assay: Yeast outgrowth in YPD liquid medium (CLS of aged cells); settings: 100 μM tested; outgrowth OD600 nm in YPD after 24 h, age point day 14
Procedure: This quantification was performed by using the formula,
The CLS of the aged cells was further determined by the yeast outgrowth in YPD liquid medium method as described above. […] At chronological age point day 14, 3-μL of culture were transferred to a second 96-well plate containing 200 μL YPD medium.

[3] = system: prototrophic yeast strain (CEN.PK113-7D); assay: Yeast cell growth (OD600 nm) with rapamycin in SD medium
Procedure: Chronological lifespan (CLS) experiments were conducted in 96-well plates with 200 μL yeast culture. The prototrophic wild-type yeast strain (CEN.PK113-7D) and snf1Δ deletion strains were grown in the SD medium in 96-well plates at 30° C. Saccharomyces cerevisiae BY4743 strain was grown in the SD medium supplemented with histidine (40 mg/L), leucine (160 mg/L), and uracil (40 mg/L) in 96-well plates at 30° C. For assays testing the effect of rapamycin, cellular inoculum was transferred into 96-well plates containing serially double-diluted concentrations (0 to 10 nM) of rapamycin. For calorie restriction assay, cellular inoculums were prepared in SD medium containing 2% w/v, 0.5% w/v, and 0.25% w/v glucose and transferred to 96-well plates. […] Cells were incubated at 30° C., and the growth was measured at different time points. […] Cell survival was quantified at various age time points by three different approaches: (i) propidium iodide fluorescence-based method, (ii) outgrowth in YPD liquid medium and (iii) spotting assay (FIG. 1).
The effect of rapamycin on the CLS of a yeast strain was studied to examine the validity of the inventive protocol. […] Cells were aged with different concentrations of rapamycin in the SD medium and their respective growth at different time points (24 hours, 48 hours and 72 hours) were measured. […]

## OC[C@H]1O[C@H](CO)[C@@H](O)[C@@H]1O [2,5-anhydromannitol, 2,5-anhydro-D-mannitol]
[1]; screen, PI method
  extension of CLS of yeasts: extend the CLS of yeasts

## O=C(Oc1nc2[nH]c(=O)[nH]c(=O)c2[nH]1)c1cccnc1 [Xanthinol Nicotinate]
[1]
  Yeast CLS increase: No

## Aliskiren (hemiumarate)
[1]
  PI intensity: 73,607.3

## O=C(O)[C@@H]1CCCN1 [I-pyrrolidine-2-carboxylic acid]
[1]
  Yeast CLS increase: No
  PI intensity: 80,551.7
[2]
  Outgrowth: 0.1

## CO[C@H]1C[C@@H]2CC[C@@H](C)[C@@](O)(O2)C(=O)C(=O)N2CCCC[C@H]2C(=O)O[C@H]([C@H](C)C[C@@H]2CC[C@@H](O)[C@H](OC)C2)CC(=O)[C@H](C)/C=C(\C)[C@@H](O)[C@@H](OC)C(=O)[C@H](C)C[C@H](C)/C=C/C=C/C=C/1C [Rapamycin]
[1]; 5 nM and 10 nM, day 4 (without rapamycin approx. 50%)
  survival of aged cells: approximately 75%
[1]; day 7 (without rapamycin less than 20%)
  survival of aged cells: approximately 70%
[3]; 5 nM or less rapamycin
  time to cell growth saturation: approximately 24 hours
[3]; 10 nM rapamycin (slowed cell growth)
  time to cell growth saturation: 48 h
